Values quoted from earlier work as cited in patent US20060062848A1, “Formulation comprising itraconazole” (Nektar Therapeutics UK Limited, priority 2004, published 2006).
≈ marks a conversion by molar mass, not a printed value. Read-outs that look alike come from different tables or passages of the source.

aqueous solubility (neutral pH): 1 ng/mL (≈ 0.00142 µM) | aqueous solubility (pH 1): 6000 ng/mL (≈ 8.5 µM)
SMILES: CCC(C)n1ncn(-c2ccc(N3CCN(c4ccc(OCC5CO[C@](Cn6cncn6)(c6ccc(Cl)cc6Cl)O5)cc4)CC3)cc2)c1=O (mixture of isomers) [itraconazole, (±) cis-4-[4-[4-[4-[[2-(2,4-dichlorphenyl)-2-(1H-1,2,4-triazol-1-ylmethyl)-1,3-dioxolan-4-yl]methoxy]phenyl]-1-piperazinyl]phenyl]-2,4-dihydro-2-(1-methylpropyl)-3H-1,2,4-triazol-3-one]
